Source: patent EP0174085A2, “Bisarylamides of N,N'-di-[1-aminoalkyl-2]-alkylene diamines having a cardiovascular activity” (BEECHAM - WUELFING GmbH & Co. KG, priority 1984, dated 1986)

Columns and labels:
anaesthetized rats [1] = assay: Haemodynamic profile in anaesthetized rats; type: in vivo; set-up: Dhr20 = i.v. dose which reduces heart rate by ca. 20%: unit not given here; details: for %effect of Dhr20 on BP (mean arterial blood pressure) / %effect of Dhr20 on LVP (systolic left ventricular pressure) / %effect of Dhr20 on dp/dtmax: at Dhr20, i.v.; for %effect of Dhr20 on BP (mean arterial blood pressure) / %effect of Dhr20 on LVP (systolic left ventricular pressure) / %effect of Dhr20 on dp/dtmax / Dhr20 = i.v. dose which reduces heart rate by ca. 20%: rat; for %effect of Dhr20 on dp/dtmax: left ventricular dp/dt max
Excerpt: The effect of compounds of the invention on heart rate, systolic left ventricular pressure, left ventricular dp/dt max and mean arterial blood pressure was investigated so as to obtain information on the anti-anginal potential of these compounds, by reducing the oxygen demand of the ischaemic heart.

[2] = tested on: guinea-pig papillary muscle; assay: Ca++-antagonistic activity, calcium dependent action potentials in papillary muscle in vitro; type: cell-based; details: 1-3 x 10^-6M; 34+ 1°C; krebs medium containing 26 nM K+ and 0.5 nM BaCl2
Experimental: In guinea-pig papillary muscle (34+ 1°C) in vitro, the Compound (El) (1-3 x 10-^6M) depressed the maximal rate of rise (Vmax) of calcium dependent action potentials evoked in krebs medium containing […] K^+ and […], BaC12. These action potentials were recorded using conventional intracellular techniques.

anaesthetized rats [3] = assay: Vasopressin test in anaesthetized rats (coronary spasm), intraduodenal; type: in vivo; details: 32mg/kg i.d.
Experimental: Vasopressin (Lysopressin: 1 I.U./kg) was administered intravenously in order to provoke coronary spasm. Compound (El) was active against coronary spasm at a dose of 32mg/kg i.d. with a duration of action greater than 2 hours. The ability of test compounds to reduce coronary spasm is taken as a measure of their anti-anginal potential in spasm - induced angina pectoris. (Ref. Drug.Res. 33(11), 8,1117-1121 (1983)).

anaesthetized rats [4] = assay: Antianginal activity, vasopressin-induced ST-segment elevation in the ECG, i.v.; type: in vivo; details: Rattus norvegicus, iv, reduction of ST-segment elevation after i.v. 1 I.U./kg vasopressin, read-out: minimum effective i.v. antianginal dose
conscious rabbits = assay: Antiarrhythmic activity, suprathreshold cardiac electric stimulation in conscious rabbits; type: in vivo
Experimental: Compound (El) infused at 2.5mg/min in the ear vein of conscious rabbits inhibited the arrhythmogenic effect of suprathreshold cardiac electric stimulation. The therapeutic index, i.e. the ratio between the dose of compound required to produce A-V-block (8 mg/kg) and that dose which gave an antiarrhythmic effect (0.9mg/kg) was 8.9.

CCC(CNC(=O)c1ccc2c(c1)OCO2)N(C)CCN(C)C(CC)CNC(=O)c1ccc2c(c1)OCO2 (stereo not drawn) [Compound E12]
%effect of Dhr20 on BP (mean arterial blood pressure) (anaesthetized rats [1]): -4%
%effect of Dhr20 on LVP (systolic left ventricular pressure) (anaesthetized rats [1]): -8%
%effect of Dhr20 on dp/dtmax (anaesthetized rats [1]): -11%
i.v. duration of action on heart rate (rat) (anaesthetized rats [1]): 10 to 15 min
Dhr20 = i.v. dose which reduces heart rate by ca. 20% (anaesthetized rats [1]): 1.6

CCC(CNC(=O)c1cc(OC)c(OC)c(OC)c1)N1CCC(N(C)C(CC)CNC(=O)c2cc(OC)c(OC)c(OC)c2)CC1 (stereo not drawn) [Compound E38, 1-[1-(3,4,5-trimethoxybenzamido-butyl-(2))]-4-N-methyl-N-[1-(3,4,5-trimethoxybenzamido-butyl-(2))]-amino-piperidine]
%effect of Dhr20 on BP (mean arterial blood pressure) (anaesthetized rats [1]): -6%
%effect of Dhr20 on LVP (systolic left ventricular pressure) (anaesthetized rats [1]): -7%
%effect of Dhr20 on dp/dtmax (anaesthetized rats [1]): -32%
i.v. duration of action on heart rate (rat) (anaesthetized rats [1]): 10 to 15 min
Dhr20 = i.v. dose which reduces heart rate by ca. 20% (anaesthetized rats [1]): 12.8

CCC(CNC(=O)c1cc(OC)c(OC)c(OC)c1)N(C)CCN(C)C(CC)CNC(=O)c1cc(OC)c(OC)c(OC)c1 (stereo not drawn) [Compound E1, N,N'-dimethyl-N,N'-di-[1-(3,4,5-trimethoxybenzamido)-butyl-(2)]-ethylenediamine]
maximal rate of rise (Vmax) of calcium dependent action potentials [2]: depressed
%effect of Dhr20 on LVP (systolic left ventricular pressure) (anaesthetized rats [1]): -17%
%effect of Dhr20 on dp/dtmax (anaesthetized rats [1]): -24%
i.v. duration of action on heart rate (rat) (anaesthetized rats [1]): 5 min
Dhr20 = i.v. dose which reduces heart rate by ca. 20% (anaesthetized rats [1]): 3.2
duration of action (anaesthetized rats [3]; against coronary spasm): greater than 2 hours
activity against coronary spasm (anaesthetized rats [3]; vasopressin (Lysopressin) 1 I.U./kg i.v.): active
minimal effective dose (anaesthetized rats [4]): 0.2 mg/kg
minimal effective dose (conscious rabbits; Oryctolagus cuniculus, iv, infusion in the ear vein, conscious rabbits, read-out: dose which gave an antiarrhythmic effect): 0.9 mg/kg
arrhythmogenic effect of suprathreshold cardiac electric stimulation (conscious rabbits; infused at 2.5mg/min in the ear vein, conscious rabbits): inhibited
dose of compound required to produce A-V-block (conscious rabbits; infusion in the ear vein, conscious rabbits): 8 mg/kg
therapeutic index (conscious rabbits; ratio of A-V-block dose to antiarrhythmic dose): 8.9

CCC(CNC(=O)c1cccc(Cl)c1)N(C)CCN(C)C(CC)CNC(=O)c1cccc(Cl)c1 (stereo not drawn) [Compound E3]
%effect of Dhr20 on BP (mean arterial blood pressure) (anaesthetized rats [1]): -16%
%effect of Dhr20 on LVP (systolic left ventricular pressure) (anaesthetized rats [1]): -2%
%effect of Dhr20 on dp/dtmax (anaesthetized rats [1]): -15%
i.v. duration of action on heart rate (rat) (anaesthetized rats [1]): 10 min
Dhr20 = i.v. dose which reduces heart rate by ca. 20% (anaesthetized rats [1]): 1.6

CCC(CNC(=O)c1ccncc1)N(C)CCN(C)C(CC)CNC(=O)c1ccncc1 (stereo not drawn) [Compound E29]
%effect of Dhr20 on BP (mean arterial blood pressure) (anaesthetized rats [1]): -10%
%effect of Dhr20 on LVP (systolic left ventricular pressure) (anaesthetized rats [1]): -6%
%effect of Dhr20 on dp/dtmax (anaesthetized rats [1]): -2%
i.v. duration of action on heart rate (rat) (anaesthetized rats [1]): 10 min
Dhr20 = i.v. dose which reduces heart rate by ca. 20% (anaesthetized rats [1]): 12.8

CCC(CNC(=O)c1cccnc1)N(C)CCN(C)C(CC)CNC(=O)c1cccnc1 (stereo not drawn) [Compound E30, N,N'-dimethyl-N,N'-di[1-nicotinoylamido-butyl-(2)]-ethylene-diamine]
%effect of Dhr20 on BP (mean arterial blood pressure) (anaesthetized rats [1]): -14%
%effect of Dhr20 on LVP (systolic left ventricular pressure) (anaesthetized rats [1]): -9%
%effect of Dhr20 on dp/dtmax (anaesthetized rats [1]): -15%
i.v. duration of action on heart rate (rat) (anaesthetized rats [1]): 10 min
Dhr20 = i.v. dose which reduces heart rate by ca. 20% (anaesthetized rats [1]): 12.8

CC[C@@H](CNC(=O)c1cc(OC)c(OC)c(OC)c1)N(C)CCN(C)[C@@H](CC)CNC(=O)c1cc(OC)c(OC)c(OC)c1 [Compound E8]
%effect of Dhr20 on BP (mean arterial blood pressure) (anaesthetized rats [1]): -30%
%effect of Dhr20 on LVP (systolic left ventricular pressure) (anaesthetized rats [1]): -29%
%effect of Dhr20 on dp/dtmax (anaesthetized rats [1]): -36%
Dhr20 = i.v. dose which reduces heart rate by ca. 20% (anaesthetized rats [1]): 3.2

CCC(CNC(=O)c1cc(Cl)cc(Cl)c1)N(C)CCN(C)C(CC)CNC(=O)c1cc(Cl)cc(Cl)c1 (stereo not drawn) [Compound E2, N,N'-dimethyl-N,N'-di-(2-[1-(3,5-dichlorobenzamido)] -butyl)-ethylene-diamine]
%effect of Dhr20 on BP (mean arterial blood pressure) (anaesthetized rats [1]): -7%
%effect of Dhr20 on dp/dtmax (anaesthetized rats [1]): -21%
i.v. duration of action on heart rate (rat) (anaesthetized rats [1]): 15 min
Dhr20 = i.v. dose which reduces heart rate by ca. 20% (anaesthetized rats [1]): 3.2

COc1cc(C(=O)NCC2CCCCN2CCN2CCCCC2CNC(=O)c2cc(OC)c(OC)c(OC)c2)cc(OC)c1OC (stereo not drawn) [Compound E16]
%effect of Dhr20 on BP (mean arterial blood pressure) (anaesthetized rats [1]): -17%
%effect of Dhr20 on LVP (systolic left ventricular pressure) (anaesthetized rats [1]): -17.3%
%effect of Dhr20 on dp/dtmax (anaesthetized rats [1]): -32%
i.v. duration of action on heart rate (rat) (anaesthetized rats [1]): 10 min
Dhr20 = i.v. dose which reduces heart rate by ca. 20% (anaesthetized rats [1]): 6.4

CCC(CNC(=O)c1ccc(OC)c(OC)c1)N(C)CCN(C)C(CC)CNC(=O)c1ccc(OC)c(OC)c1 (stereo not drawn) [Compound E11]
%effect of Dhr20 on BP (mean arterial blood pressure) (anaesthetized rats [1]): -2%
%effect of Dhr20 on LVP (systolic left ventricular pressure) (anaesthetized rats [1]): -4%
%effect of Dhr20 on dp/dtmax (anaesthetized rats [1]): -7%
i.v. duration of action on heart rate (rat) (anaesthetized rats [1]): 5 to 10 min
Dhr20 = i.v. dose which reduces heart rate by ca. 20% (anaesthetized rats [1]): 3.2

CCC(CNC(=O)c1ccc(C#N)cc1)N(C)CCN(C)C(CC)CNC(=O)c1ccc(C#N)cc1 (stereo not drawn) [Compound E7]
%effect of Dhr20 on BP (mean arterial blood pressure) (anaesthetized rats [1]): -6%
%effect of Dhr20 on LVP (systolic left ventricular pressure) (anaesthetized rats [1]): -5%
%effect of Dhr20 on dp/dtmax (anaesthetized rats [1]): -15%
i.v. duration of action on heart rate (rat) (anaesthetized rats [1]): 5 to 10 min
Dhr20 = i.v. dose which reduces heart rate by ca. 20% (anaesthetized rats [1]): 3.2
